In PubChem BioAssay AID330 (DTP/NCI, 2004):
Several values for one entry are separate records, joined by “and”; a condition that tells them apart may be missing. Equal values may be shown once. Inconclusive results and toxic doses are left out. Rule for the calls: active = survival T/C of 150% or more; inactive = T/C below 125% in these data.

Test system: P388 leukemia ip, CD2F1 mice, survival T/C
Test: NCI In Vivo Anticancer Drug Screen. Data for tumor model P388 Leukemia (intraperitoneal) in CD2F1 (CDF1) mice
Conditions: endpoint: median survival time, higher = longer survival
How it was run: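 Mice carrying the transplanted tumor received test compound or vehicle. Survival was recorded in each group, and the value is the treated-group measurement divided by that of the vehicle-treated control group.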

[1] = dose: 25.0 mg/kg/injection, schedule: Q01DX009 (ip), vehicle: saline
[2] = dose: 50.0 mg/kg/injection, schedule: Q01DX009 (ip), vehicle: saline
[3] = dose: 100.0 mg/kg/injection, schedule: Q01DX009 (ip), vehicle: saline
[4] = dose: 60.0 mg/kg/injection, schedule: Q01DX005 (ip), vehicle: saline
[5] = dose: 200.0 mg/kg/injection, schedule: Q04DX003 (ip), vehicle: saline with Tween-80
[6] = dose: 50.0 mg/kg/injection, schedule: Q01DX009 (ip), vehicle: saline with Tween-80
[7] = dose: 100.0 mg/kg/injection, schedule: Q01DX009 (ip), vehicle: saline with Tween-80
[8] = dose: 200.0 mg/kg/injection, schedule: Q01DX009 (ip), vehicle: saline with Tween-80
[9] = dose: 200.0 mg/kg/injection, schedule: Q01DX009 (ip), vehicle: saline
[10] = dose: 6.25 mg/kg/injection, schedule: Q01DX009 (ip), vehicle: water
[11] = dose: 12.5 mg/kg/injection, schedule: Q01DX009 (ip), vehicle: water
[12] = dose: 50.0 mg/kg/injection, schedule: Q01DX009 (ip), vehicle: Klucel (hydroxypropylcellulose) (HPC)
[13] = dose: 100.0 mg/kg/injection, schedule: Q01DX009 (ip), vehicle: Klucel (hydroxypropylcellulose) (HPC)
[14] = dose: 200.0 mg/kg/injection, schedule: Q01DX009 (ip), vehicle: Klucel (hydroxypropylcellulose) (HPC)

Measured: T/C

C=CCCCCCCCCCCCCCC1=NCC[N+]1(CCO)CC(O)COc1cc(Cl)c(Cl)c(Cl)c1 (stereo unspecified)
inactive: dose: 12.5 mg/kg/injection, schedule: Q01DX009 (ip), vehicle: saline 102 % of control | [1] 106 % of control | [2] 105 % of control and 108 % of control | [3] 90 % of control

C=CC1C(C[C@@H]2c3cc(O)c(O)cc3CCN2C(C)=O)C(C(=O)OC)=CO[C@H]1OC1OC(CO)C(O)C(O)C1O (stereo partly specified)
inactive: [4] 105 % of control | dose: 120.0 mg/kg/injection, schedule: Q01DX005 (ip), vehicle: saline 103 % of control | dose: 240.0 mg/kg/injection, schedule: Q01DX005 (ip), vehicle: saline 104 % of control

COc1ccc2c(c1)[C@@H](NC(C)=O)CCc1cc(OC)c(OC)c(OC)c1-2
inactive: dose: 0.25 mg/kg/injection, schedule: Q01DX005 (ip), vehicle: saline 100 % of control and 108 % of control | dose: 0.5 mg/kg/injection, schedule: Q01DX005 (ip), vehicle: saline 102 % of control and 105 % of control | dose: 1.0 mg/kg/injection, schedule: Q01DX005 (ip), vehicle: saline 104 % of control and 108 % of control | dose: 2.0 mg/kg/injection, schedule: Q01DX005 (ip), vehicle: saline 110 % of control and 96 % of control | dose: 4.0 mg/kg/injection, schedule: Q01DX005 (ip), vehicle: saline 98 % of control and 108 % of control

COc1cc(/C=N\N=C\c2cc(OC)c(OC)c(OC)c2)cc(OC)c1OC
inactive: [5] 100 % of control

O=Nc1cc(S(=O)(=O)O)c2ccccc2c1O
inactive: [6] 100 % of control | [7] 90 % of control | [8] 90 % of control

COc1ccc(OC)c(NC(=O)C2=C(C)NC(C)=C(C(=O)Nc3cc(OC)ccc3OC)C2c2cccc([N+](=O)[O-])c2)c1
inactive: dose: 7.5 mg/kg/injection, schedule: Q01DX005 (ip), vehicle: Klucel (hydroxypropylcellulose) (HPC) 101 % of control | dose: 15.0 mg/kg/injection, schedule: Q01DX005 (ip), vehicle: Klucel (hydroxypropylcellulose) (HPC) 94 % of control | dose: 30.0 mg/kg/injection, schedule: Q01DX005 (ip), vehicle: Klucel (hydroxypropylcellulose) (HPC) 92 % of control

O=C(c1ccc2c(c1)OCO2)N1OC2C=CC1CC2 (stereo unspecified)
inactive: [6] 98 % of control | [7] 96 % of control | [8] 98 % of control

N=C(N)SCc1cccc2c(=O)cc(-c3ccccc3)oc12
inactive: [1] 118 % of control | [2] 86 % of control and 93 % of control | [9] 113 % of control and 122 % of control

CCCCCCCCCCCCCCCC[N+](C)(C)CCNC(=O)c1ccccc1
inactive: dose: 3.12 mg/kg/injection, schedule: Q01DX009 (ip), vehicle: water 101 % of control | [10] 106 % of control | [11] 99 % of control and 101 % of control

CC1CC[N-]CC1.CC1CC[N-]CC1.CC1CC[N-]CC1.CC1CC[N-]CC1.CS(C)=O.CS(C)=O.[Cl-].[Cl-].[Cl-].[Cl-].[Pt+4].[Rh+3]
inactive: dose: 0.19 mg/kg/injection, schedule: Q01DX009 (ip), vehicle: saline 98 % of control | dose: 0.38 mg/kg/injection, schedule: Q01DX009 (ip), vehicle: saline 114 % of control | dose: 0.75 mg/kg/injection, schedule: Q01DX009 (ip), vehicle: saline 105 % of control | dose: 1.5 mg/kg/injection, schedule: Q01DX009 (ip), vehicle: saline 108 % of control | dose: 3.0 mg/kg/injection, schedule: Q01DX009 (ip), vehicle: saline 115 % of control

C=C1C(=O)O[C@H]2C[C@@H]3O[C@@H]3[C@@H]12
inactive: dose: 1.56 mg/kg/injection, schedule: Q01DX009 (ip), vehicle: water 98 % of control | dose: 3.13 mg/kg/injection, schedule: Q01DX009 (ip), vehicle: water 100 % of control | [10] 100 % of control | [11] 109 % of control

CNc1cc(NC)c2c(c1N)C(=O)c1ccccc1C2=O
inactive: dose: 50.0 mg/kg/injection, schedule: Q04DX002 (ip), vehicle: Klucel (hydroxypropylcellulose) (HPC) 103 % of control | dose: 100.0 mg/kg/injection, schedule: Q04DX002 (ip), vehicle: Klucel (hydroxypropylcellulose) (HPC) 100 % of control | dose: 200.0 mg/kg/injection, schedule: Q04DX002 (ip), vehicle: Klucel (hydroxypropylcellulose) (HPC) 101 % of control

CN(C)c1cc(=O)c2ccc3ccccc3c2o1
inactive: [6] 96 % of control | [7] 96 % of control | [8] 93 % of control

C(=Nc1ccc(N=Cc2ccccc2P(c2ccccc2)c2ccccc2)cc1)c1ccccc1P(c1ccccc1)c1ccccc1
inactive: [12] 99 % of control | [13] 99 % of control | [14] 99 % of control

CCOC(=O)N1CCN(CCCCCOc2ccc(CC(C)(C)C)cc2Cl)CC1
inactive: dose: 25.0 mg/kg/injection, schedule: Q01DX009 (ip), vehicle: saline with Tween-80 110 % of control | [1] 93 % of control | [6] 106 % of control | [2] 100 % of control | [7] 111 % of control | [3] 113 % of control | [8] 117 % of control | [9] 92 % of control

c1ccc2n[nH]nc2c1
inactive: [2] 100 % of control | dose: 100.0 mg/kg/injection, schedule: Q01DX001 (ip), vehicle: saline with Tween-80 112 % of control | [7] 104 % of control | [3] 100 % of control | dose: 100.0 mg/kg/injection, schedule: Q04DX003 (ip), vehicle: saline with Tween-80 95 % of control | dose: 200.0 mg/kg/injection, schedule: Q01DX001 (ip), vehicle: saline with Tween-80 105 % of control | [8] 109 % of control | [9] 104 % of control | [5] 109 % of control

CSc1cccc(NC(=O)OCCOc2ccc(-c3ccccc3)cc2)c1
inactive: [13] 87 % of control

C/C=C1/CN2CCC34c5ccccc5N(C(C)=O)C3C(CO)C1CC24 (stereo unspecified)
inactive: dose: 11.25 mg/kg/injection, schedule: Q01DX009 (ip), vehicle: saline with Tween-80 106 % of control | dose: 22.5 mg/kg/injection, schedule: Q01DX009 (ip), vehicle: saline with Tween-80 100 % of control | dose: 45.0 mg/kg/injection, schedule: Q01DX009 (ip), vehicle: saline with Tween-80 102 % of control | dose: 90.0 mg/kg/injection, schedule: Q01DX009 (ip), vehicle: saline with Tween-80 100 % of control

CCCCOc1ccc(-c2c(COC(=O)NC)c(COC(=O)NC)c(C)n2C)cc1
inactive: dose: 7.5 mg/kg/injection, schedule: Q01DX009 (ip), vehicle: distilled water + Tween-80 120 % of control

O=[N+]([O-])c1ccc(/C=C/S(=O)(=O)/C=C\c2ccccc2)cc1
inactive: dose: 50.0 mg/kg/injection, schedule: Q01DX005 (ip), vehicle: saline with Tween-80 101 % of control | dose: 100.0 mg/kg/injection, schedule: Q01DX005 (ip), vehicle: saline with Tween-80 97 % of control | dose: 200.0 mg/kg/injection, schedule: Q01DX005 (ip), vehicle: saline with Tween-80 88 % of control

Cn1c(=O)oc2cc([N+](=O)[O-])c(Cl)cc21
inactive: dose: 50.0 mg/kg/injection, schedule: Q01DX005 (ip), vehicle: Klucel (hydroxypropylcellulose) (HPC) 95 % of control | dose: 100.0 mg/kg/injection, schedule: Q01DX005 (ip), vehicle: Klucel (hydroxypropylcellulose) (HPC) 92 % of control

C[Si](C)(C)CNCc1ccccc1
inactive: dose: 15.0 mg/kg/injection, schedule: Q01DX005 (ip), vehicle: saline 108 % of control | dose: 30.0 mg/kg/injection, schedule: Q01DX005 (ip), vehicle: saline 105 % of control | [4] 102 % of control and 97 % of control

COC(=O)C(Cc1c[nH]c2ccccc12)NC(=O)C(NC(=O)OC(C)(C)C)C(C)C (stereo unspecified)
inactive: [12] 101 % of control | [13] 99 % of control | [14] 97 % of control | dose: 400.0 mg/kg/injection, schedule: Q01DX009 (ip), vehicle: Klucel (hydroxypropylcellulose) (HPC) 90 % of control
